Ki data for 1 molecule are collected here from patent publication US20100324072A1, “PYRROLOPYRIDINE DERIVATIVES AND THEIR USE AS BACE INHIBITORS” (ASTRAZENECA AB, priority 2007, published 2010).

For orientation: pKi means the negative decadic logarithm of the Ki, by convention in mol/L. Higher therefore signals a low Ki.

The structures appear in SMILES notation. pKi: −log10 of the molar value.

The target of this assay is T1, human β-Secretase (Homo sapiens, UniProt P56817).
T1 construct: The soluble part of the human β-Secretase (AA 1-AA 460) was cloned; Fc domain of IgG1 (C); made in house
As to the kind of experiment: TR-FRET assay (β-secretase enzyme cleavage of (Europium)CEVNLDAEFK(Qsy7) substrate). As to conditions: sBACE-Fc 2.7 μg/ml, substrate 100 nM, pH 4.5, 15 min at RT. In kind it is biochemical. Here is the method: The enzyme used in the IGEN Cleavage-, Fluorescent-, TR-FRET- and BiaCore assays is described as follows:
The soluble part of the human β-Secretase (AA 1-AA 460) was cloned into the ASP2-Fc10-1-IRES-GFP-neoK mammalian expression vector. The gene was fused to the Fc domain of IgG1 (affinity tag) and stably cloned into HEK 293 cells. Purified sBACE-Fc is stored in Tris buffer, pH 9.2 and has a purity of 95%.
Enzyme was diluted to 6 μg/mL and the substrate (Europium)CEVNLDAEFK(Qsy7) to 200 nM in reaction buffer (NaAcetate, chaps, triton x-100, EDTA pH 4.5). Compounds were diluted to the desired concentration in dimethyl sulfoxide (final dimethyl sulfoxide concentration in assay is 5%). The assay was done in a Costar 384 well round bottom, low volume, non-binding surface plate (Corning #3676). Enzyme (9 μL) and 1 μL of compound in dimethyl sulfoxide was added to the plate, mixed and pre-incubated for 10 min. Substrate (10 μL) was added and the reaction proceeded in the dark for 15 min at RT. The reaction was stopped with the addition of 7 μl, NaAcetate, pH 9. The fluorescence of the product was measured on a Victor II plate reader with an excitation wavelength of 340 nm and an emission wavelength of 615 nm. The final concentration of the enzyme was 2.7 μg/ml and the final concentration of the substrate was 100 nM (Km of 290 nM). […]
On the technique in general: Time-resolved FRET reads energy transfer from a long-lived donor to a nearby acceptor.

T1 sequence (P56817 22-460): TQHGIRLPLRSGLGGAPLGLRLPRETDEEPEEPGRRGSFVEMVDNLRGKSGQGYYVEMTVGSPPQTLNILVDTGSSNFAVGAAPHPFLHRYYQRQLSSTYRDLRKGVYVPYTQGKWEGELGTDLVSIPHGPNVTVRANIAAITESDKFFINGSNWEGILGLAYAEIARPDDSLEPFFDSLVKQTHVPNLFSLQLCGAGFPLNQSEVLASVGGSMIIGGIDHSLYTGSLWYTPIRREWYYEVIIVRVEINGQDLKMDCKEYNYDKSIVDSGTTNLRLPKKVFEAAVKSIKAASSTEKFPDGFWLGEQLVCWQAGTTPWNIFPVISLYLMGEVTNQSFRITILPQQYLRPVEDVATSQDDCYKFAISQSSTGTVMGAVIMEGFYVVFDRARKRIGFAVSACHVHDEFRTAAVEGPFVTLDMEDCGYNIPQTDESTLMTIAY

Molecule `COc1cccc(-c2cccc(C3(c4ccncc4)N=C(N)c4cccnc43)c2)c1F` (stereo not shown) [Example 23, 7-(2′-Fluoro-3′-methoxybiphenyl-3-yl)-7-pyridin-4-yl-7H-pyrrolo[3,4-b]pyridin-5-amine] showed a pKi of 7.06.
